# According to ChEMBL document CHEMBL3507680, “University of Dundee, Gates Library screen for HepG2 cell viability”:
# Experiment: Human HepG2 cell viability assay in 384 well format
# Type: toxicity, cell-based
# Design: dose 125 nL, time 70.5 hour; cytotoxicity at 70.5 h: concentration not given beside the values
# Conditions: HepG2 cells, read-out: Inhibition
row,Structure (SMILES),cytotoxicity at 70.5 h
1,CC(C)CN1CCc2[nH]cnc2C12CCN(C(=O)c1cccnc1)CC2,12.4%
2,CCCS(=O)(=O)N1CCC2(CCC(=O)N(CCc3ccncc3)C2)CC1,-9.81%
3,CCOC[C@@H]1CC[C@H]2[C@H](CCN2S(=O)(=O)Cc2ccccc2)O1,10.7%
4,COc1ccc(C(=O)N2CCCC(C)C2)cc1F (stereo unspecified),-2.9%
5,CN(C)C(=O)CN1C[C@H]2CCN(c3ncccn3)CC[C@H]2S1(=O)=O,-0.338%
6,Cc1cccc(C(C)C)c1NC(=O)CN(C)C(C)c1nccs1 (stereo unspecified),-9.73%
7,O=C(C1CCOC1)N1C[C@@H]2CCN(C(=O)c3cscn3)[C@@H]2C1 (stereo partly specified),14%
8,CC(C)(C)CC(=O)NCCCn1cncn1,-6.64%
9,Cn1ccnc1N1CCN(C(=O)Cc2ccc(Cl)cc2)CC1,-1.94%
10,COc1ccccc1OCCNCc1c(C(C)C)nn(C)c1N(C)C,34.1%
11,CCc1c(C)[nH]c(C(C)(C)N)nc1=O,-7.1%
12,COCCCN(C)C(=O)c1nnn(-c2ccccc2Cl)c1C,1.5%
13,CC(C)c1nc(CN(C)C(=O)Cn2nc3ccccc3n2)no1,-10.4%
14,Cc1ccncc1C(=O)N1C[C@@H]2CN(c3ncccn3)C[C@]2(C(=O)O)C1,-5.72%
15,Cc1cc(C)n(-c2cncc(NCCNC(=O)c3cccnc3)n2)n1,-3.57%
16,COc1ccc(C(=O)N2CCOC(Cc3cccc(C(F)(F)F)c3)C2)o1 (stereo unspecified),-7.8%
17,Cc1cnn(CC2CCN(CC(O)c3ccccc3)CC2)c1 (stereo unspecified),13.9%
18,COc1ccc(CNC(=O)Nc2ccc(CN3CCOC3=O)cc2)cc1,-0.36%
19,Cc1cc(C)n(C2CCCN(C(=O)c3ccn(C)c(=O)c3)C2)n1 (stereo unspecified),-9.18%
20,COC1CCC[C@@H]2CN(Cc3csc(C)n3)C[C@H]12 (stereo partly specified),-4.08%
21,CC(C)C(=O)N1Cc2ccccc2CC2(CCCN2C)C1 (stereo unspecified),-10.9%
22,O=C(Nc1cc(F)ccc1OCC1CCCO1)c1ccccn1 (stereo unspecified),-8.61%
23,CC(C)NC(=O)c1cccc(NC(=O)CCCc2nc(C(C)C)no2)c1,5.5%

row,Structure (SMILES),cytotoxicity at 70.5 h
1,Cc1nccc(C2CN(Cc3cc[nH]n3)CCO2)n1 (stereo unspecified),-15.2%
2,CN(Cc1ccccn1)C(=O)c1nn(C)c2c1CCN(CC1CC1)C2,-1.96%
3,CCOc1ccc(C(=O)NC2CC2)cc1C,-7.46%
4,O=C(c1ccc(-n2cccn2)c(F)c1)N1CCCN2CCCC2C1 (stereo unspecified),-8.24%
5,Cc1noc(C)c1CN(C)Cc1csc(-c2ncccn2)n1,-3.82%
6,CN(C)CC(=O)N1CCc2ncnc(-c3ccsc3)c2CC1,-0.46%
7,CC(=O)N[C@@H]1Cc2ccccc2[C@H]1Nc1ccncn1,-5.99%
8,Cn1cnc(S(=O)(=O)N2C[C@H]3CN(Cc4cccnc4)C[C@H]3C2)c1,1.66%
9,CCc1nnc(C2Cc3ccccc3CN2Cc2cc(C)no2)o1 (stereo unspecified),-4.33%
10,Cn1nc(-c2ccccc2)c(Br)c1C(=O)O,-23.2%
11,COc1ccc2cc(CN(C)C(C)c3nc(C4CC4)no3)ccc2c1 (stereo unspecified),-0.253%
12,Cc1cc(C)n(CC(=O)N2C[C@@H]3CC[C@H](C2)N(CC2CCC2)C3)c(=O)n1,24.1%
13,O=C(CCCOc1ccccc1F)Nc1cc[nH]n1,-6.95%
14,COc1cc(C)c(C2CC(=O)Nc3cc(NS(C)(=O)=O)ccc32)cc1C (stereo unspecified),0.99%
15,O=C(c1ccco1)N1CCOCC2(C1)CN(c1ccccn1)C(=O)CO2 (stereo unspecified),-4.96%
16,CCc1cc(O)nc(C2CCCN2C(=O)COC)n1 (stereo unspecified),-5.06%
17,Cc1cc(C)c2c(N3CCC(O)(Cn4ccnc4)CC3)ncnc2n1,-0.18%
18,Cc1cc(C(=O)NC2(c3cccc(F)c3)CCOCC2)no1,-7.78%
19,CN1CCN(CCCN(C)S(=O)(=O)CC2CCCCC2)CC1,-3.5%
20,O=C(C1=CCCC1)N1CCC[C@]2(C[C@@H](OCc3ccccn3)CO2)C1,-15.2%
21,O=C1COc2cccc(OCc3ccccn3)c2N1,-0.596%
22,CO[C@H]1CN(Cc2cc(F)ccc2F)CC[C@@]12CCCO2,-2.25%
23,Cc1cc(NC(=O)c2ccc(C)c(F)c2)[nH]n1,-1.85%

row,Structure (SMILES),cytotoxicity at 70.5 h
1,CC(C)Cn1c2c(ccc1=O)CC(NC(=O)c1ccsc1)CC2 (stereo unspecified),-11.8%
2,C1CC(CN2CCc3c(nnn3CC3CC3)C2COCC2CC2)C1 (stereo unspecified),-8.97%
3,Cc1ccc(NC2CCN(C(=O)c3ccc(F)c(C)c3)CC2)nn1,14.1%
4,CC(C)(C)c1cn2nc(N3CCC[C@@H]3CO)sc2n1,-17.4%
5,CNC(=O)c1ccc(NC(=O)NC(C)CCc2cccn2C)c(C)c1 (stereo unspecified),-0.342%
6,CCC(C)N1CCc2c(C(=O)N(C)Cc3ccccn3)nn(C)c2C1 (stereo unspecified),-7.34%
7,Cc1noc(C)c1C(=O)N1CC[C@]2(C[C@@H](OCc3cccnc3)CO2)C1,-9.24%
8,Cc1nc2c(c(N3CCC(CN4CCCC4=O)CC3)n1)CCNCC2,-5.86%
9,CC(C)c1cc(NCC2(Cn3cccn3)CC2)n2nccc2n1,5.08%
10,CCC(C)NC(=O)c1ccc(CNC(=O)COC)cc1 (stereo unspecified),-9.97%
11,CCc1noc(CN(CC(=O)N2CCCCC2)c2ccc(C)cc2)n1,-1.63%
12,O=C(C1=CCCC1)N1C[C@@H]2COC[C@]2(COc2cccnc2)C1,-5.78%
13,CC1c2ncc(Cn3cccn3)n2CCN1S(=O)(=O)C1CC1 (stereo unspecified),-5.83%
14,CC(C)C(=O)NS(=O)(=O)c1ccc(F)c(C(F)(F)F)c1,-10.6%
15,CCc1nnc2n1CCN(C(=O)c1ccccc1OCC1CC1)C2,0.159%
16,CCn1cnnc1CNC(=O)N1CCC(CN2CCOCC2)CC1,-14.7%
17,Cn1nc(Cn2cccc2)c2c1CN(Cc1ccoc1)C2,21.4%
18,Cc1cc(F)ccc1OC1(C(=O)O)CCN(Cc2nccn2C)CC1,-7.09%
19,Cc1nc(C)n(C2CCCN(C(=O)c3csnn3)C2)n1 (stereo unspecified),-11.1%
20,Cc1cc(-c2cnc(C)nc2CN(C)C(=O)c2ccccn2)on1,-3.87%
21,Cc1cccc(COC[C@@H]2CC[C@H]3[C@H](CCN3Cc3ccco3)O2)n1,-6.18%
22,Cc1nc(CN2CCO[C@@H]3CN(C(=O)CC4CC4)C[C@@H]3C2)cs1,-1.45%
23,Cc1nc(C)c(C(=O)N2CCCC2(C)C(=O)NC2CCCC2)o1 (stereo unspecified),8.88%

row,Structure (SMILES),cytotoxicity at 70.5 h
1,Cc1ccc(N2C[C@H]3CCN(Cc4ccncc4)C[C@H]3C2)nn1,-9.91%
2,Cn1cc(C(=O)N2CCCC(C(=O)CCc3ccccc3)C2)cn1 (stereo unspecified),-23.4%
3,CSCC[C@@H]1CN2CCC[C@H]2CN1Cc1coc2ccc(C)cc2c1=O,-1.62%
4,Cc1onc(N)c1S(=O)(=O)N1CCCCC1C (stereo unspecified),-2.67%
5,Cc1cc(C2CCCN2Cc2ccn(C)c(=O)c2)on1 (stereo unspecified),-3.44%
6,COc1ccccc1CN(C)C(=O)C[S+]([O-])Cc1cc(C)on1 (stereo unspecified),-1.97%
7,CC(C)N1CCOC(CC(=O)N2CC(c3ccncc3)C2)C1 (stereo unspecified),-2.68%
8,OC1(CNCc2noc(Cc3ccccc3)n2)CCCNC1 (stereo unspecified),0.455%
9,O=C(CCOc1ccccc1)N1CCC(Nc2cccnn2)CC1,1.59%
10,Cc1ccsc1CN(C)c1cc(N2CCCC2CO)ncn1 (stereo unspecified),-3.13%
11,CC(NC(=O)N1CCC(n2cncn2)CC1)c1ccc(F)cc1F (stereo unspecified),-13.6%
12,C[C@@H]1CN(C(=O)c2ccc[nH]2)C[C@]12CCN(CCN1CCCC1)C2=O,-5.21%
13,CN1CCN(c2ccc(F)cc2NC(=O)NCC[S+](C)[O-])CC1 (stereo unspecified),-2.15%
14,Cc1cc(C(=O)N2C[C@@H]3OCCN(CCN4CCCC4)[C@@H]3C2)c(C)o1,-7.77%
15,COC(=O)c1sc(C(NC(=O)c2ccccc2)C2CC2)nc1C (stereo unspecified),-3.65%
16,CCn1c(CC2CCN(S(=O)(=O)N3CCCCC3)CC2)nn(C)c1=O,-3.16%
17,CC(=O)N1CC[C@H]2OCC[C@@H](C(=O)NCc3ccco3)[C@H]2C1,-12.4%
18,Cn1cc(-c2nnn3c2COC(CNCc2ccccn2)C3)cn1 (stereo unspecified),14.6%
19,CCc1nc(C(=O)N2CCCC2)nn1-c1ccccc1Cl,10.2%
20,C=Cn1ncc(CN2C[C@@H]3C[C@@H](O)CN3C[C@H]2Cc2ccccc2)c1C,-5.5%
21,COc1ccc(C(C)NCc2cscn2)cc1Cn1cccn1 (stereo unspecified),-7.35%
22,COCCOCCNC(=O)c1ccc(N2CCC(C)=N2)cc1,-3.96%
23,Cc1cccc(C2(CNC(C)c3nnc(C)o3)CCCC2)c1 (stereo unspecified),-6.44%

row,Structure (SMILES),cytotoxicity at 70.5 h
1,COc1cccc(CCC2CCCN(C(=O)C3=NN(C)C(=O)CC3)C2)c1 (stereo unspecified),-5.36%
2,CC(C)(C)c1cn(C[C@H]2CC3CCN2C[C@@H]3C(=O)NC2CC2)nn1 (stereo partly specified),10.5%
3,O=C(NC[C@H]1OC[C@@H](NCc2ccc(F)cc2)[C@@H]1O)c1ccncc1,0.548%
4,CCCN1CCC(N(C)CCC(=O)Nc2ccccc2SC)CC1,1.62%
5,CNC(=O)[C@H]1CC[C@@H]2[C@@H](CCN2c2ncccn2)O1,3.25%
6,CCn1cnnc1CNC(=O)N1CCOC(c2ccc(F)cc2)C1 (stereo unspecified),-3.32%
7,c1nc(CN2CCC3(CC2)COCCN3CC2CC2)c[nH]1,-18.8%
8,CCC(C)NS(=O)(=O)Cc1cccc(NC(=O)C(C)C)c1 (stereo unspecified),-2.19%
9,CCc1nc(C)c(C(=O)NCCN2CCC(C)CC2)s1,0.72%
10,Cc1csc(CNc2nc3c(s2)c(C)nn3C)n1,-4.74%
11,Cc1nc(C2CCNC2)nc2c1CCC(=O)N2C (stereo unspecified),-4.12%
12,CCC(=O)N1CCN(c2cc(-n3cnc(C)c3C)nc(C)n2)CC1,20.4%
13,CNC(=O)CCc1cc(C2CCCCN2C(C)C)nc(C)n1 (stereo unspecified),-1.6%
14,O=C(NC[C@H]1OC[C@@H](NC2CCCCC2)[C@@H]1O)Nc1ccccc1,15.8%
15,CCC(Nc1cccc(OC)c1)C(=O)NCc1nc(C)cc(=O)[nH]1 (stereo unspecified),-5.76%
16,FC(F)c1nnc2ccc(N3CCC4(CCCCC4)C3)nn12,-3.87%
17,O=C(Cc1ccc(F)cc1)N1CCn2cc(Cn3cncn3)nc2C1,-9.64%
18,CNc1cccc(C2CCCN(Cc3ncc[nH]3)C2)n1 (stereo unspecified),-2.87%
19,CN(C)c1nccnc1C1CCN(C(=O)C2(C)CCCCN2C)CC1 (stereo unspecified),-5.33%
